# Measured values as given in patent US11857544B2, “Composition or method including (t)ew-7197 for treating or preventing corneal endothelial diseases” (THE DOSHISHA, priority 2017, dated 2024).
# Experiments:
# [1] = tested on: immortalized human corneal endothelial cells from a Fuchs' endothelial corneal dystrophy patient (iFECD); assay: Suppression of TGF-β-induced corneal endothelial cell disorder, observed under a phase contrast microscope; format: cell-based; conditions: for effect of suppressing corneal endothelial cell disorder: Example 1, iFECD, 24 h pretreatment then 10 ng/ml TGF-β 24 h
# Experimental: The medium was removed from a culture dish culturing immortalized human corneal endothelial cells from a Fuchs' endothelial corneal dystrophy patient (iFECD), and 1×PBS(-) preheated to 37° C. was added and washed. This was repeated twice. 1×PBS(-) was added again and the medium was incubated for 5 minutes at 37° C. (5% CO2). After removing the PBS(-), 0.05% Trypsin-EDTA (Nacalai Tesque, 32778-34) was added and incubated for 5 minutes at 37° C. (5% CO2). The medium was then suspended and centrifuged for 3 minutes at 1500 rpm to retrieve cells. DMEM (Nacalai Tesque, 08456-36)+10% FBS (Biowest, S1820-500)+1% P/S (Nacalai Tesque, 26252-94) was used as the medium. The immortalized human corneal endothelial cells from a Fuchs' endothelial corneal dystrophy patient (iFECD) were seeded on a 12-well plate at a ratio of 8.0×10^4 cells per well and cultured for 24 hours at 37° C. (5% CO2). DMEM+10% FBS+1% P/S was used as the medium. After 24 hours, the medium was exchanged and cultured again for 24 hours. DMEM+2% FBS+1% P/S was used as the medium. After 24 hours, the medium was removed. 10 ng/ml of Transforming Growth Factor-132 Human recombinant (WAKO, 200-19911) was added, and the medium was cultured for 24 hours. DMEM+2% FBS+1% P/S was used as the medium. After 24 hours, the cell morphology and apoptosis were observed under a phase contrast microscope. After […] were seeded on a 12-well plate and cultured for 24 hours, the medium was removed. SB431542 (WAKO, 192-16541) and EW-7197 (Selleck Chemicals, 57530) were added so that the final concentration would each be 0.1, 0.3, 1, 3, or 10 μM, and the medium was cultured for 24 hours. DMEM+2% FBS+1% P/S was used as the medium. After 24 hours, the medium was removed. 10 ng/ml of Transforming Growth Factor-132 Human recombinant (WAKO, 200-19911) as well as SB431542 and EW-7197 were added so that the final concentration would each be 0.1, 0.3, 1, 3, or 10 μM, and the medium was cultured for 24 hours. DMEM+2% FBS+1% P/S was used as the medium. After 24 hours, the cell morphology and apoptosis were observed under a phase contrast microscope. After […] were seeded on a 12-well plate at a ratio of 7.0×10^4 cells and cultured for 24 hours, the medium was removed. EW-7197 (Selleck Chemicals, 57530) was added so that the final concentration would be 0.001, 0.003, 0.01, 0.03, 0.1, 0.3, 1, 3, 10, or 30 μM, and the medium was cultured for 24 hours. DMEM+2% FBS+1% P/S was used as the medium. After 24 hours, the medium was removed. 10 ng/ml of Transforming Growth Factor-132 Human recombinant (WAKO, 200-19911) and EW-7197 were added so that the final concentration would be 0.001, 0.003, 0.01, 0.03, 0.1, 0.3, 1, 3, 10, or 30 μM, and the medium was cultured for 24 hours. DMEM+2% FBS+1% P/S was used as the medium. After 24 hours, the cell morphology and apoptosis were observed under a phase contrast microscope.
# [2] = tested on: iFECD; assay: Cell survival rate (Cell Titer-Glo Luminescent Cell Viability Assay); format: cell-based, human; conditions: iFECD; all concentrations of 0.01, 0.1, 1, and 10 μM; 48 hours
# Experimental: were seeded on a 96-well plate at a ratio of 3×10^3 cells per well, and cultured until reaching confluence at 37° C. (5% CO2). DMEM+10% FBS+1% P/S was used as the medium. After 24 hours, the medium was removed. SB431542 (WAKO, 192-16541) and EW-7197 (Selleck Chemicals, 57530) were added so that the final concentration would each be 0.01, 0.1, 1, or 10 μM, and the medium was cultured for 48 hours. DMEM+2% FBS+1% P/S was used as the medium. After 24 hours, the cell morphology was observed under a phase contrast microscope. After observation, the cell survival rate was analyzed using Cell Titer-Glo Luminescent Cell Viability Assay by the following procedures. The medium was discarded so that the amount would be 50 μl per well, and Cell Titer-Glo Luminescent Cell Viability Assay solution (Promega, G7572) was added at 50 μl/well so that the ratio to the medium would be 1:1. The process was hereinafter conducted without exposure to light. The mixture was mixed thoroughly using a shaker for 2 minutes at about 120 min^-1, and incubated for 10 minutes. After the incubation, 80 μl was transferred to an Assay plate (Corning, 3912, Assay plate 96 well, white polystyrene), and absorbance was measured using a GloMax-Multi Detection System (Promega, E7051).
# [3] = tested on: Caspase 3/7; assay: Caspase 3/7 activity (Caspase-Glo 3/7 Assay) in TGF-β-stimulated iFECD; format: cell-based, human; conditions: in the order of 0.01, 0.1, 1, and 10 μM
# Experimental: were seeded on a 96-well plate at a ratio of 3×10^3 cells per well, and cultured until reaching confluence at 37° C. (5% CO2). DMEM+10% FBS+1% P/S was used as the medium. After 24 hours, the medium was removed. SB431542 (WAKO, 192-16541) and EW-7197 (Selleck Chemicals, 57530) were added so that the final concentration would each be 0.01, 0.1, 1, or 10 μM, and the medium was cultured for 24 hours. DMEM+2% FBS+1% P/S was used as the medium. After 24 hours, the medium was removed. 10 ng/ml of Transforming Growth Factor-132 Human recombinant (WAKO, 200-19911) and SB431542 were added so that the final concentration would be 0.01, 0.1, 1, and 10 μM, and the medium was cultured for 24 hours. DMEM+2% FBS+1% P/S was used as the medium. After 24 hours, the cell morphology was observed under a phase contrast microscope. After observation, Caspase 3/7 activity was measured using Caspase-Glo 3/7 Assay by the following procedures. The medium was discarded so that the amount would be 50 μl per well, and a Caspase Glo 3/7 Assay Reagent (mixture of Caspase-Glo 3/7 Assay Buffer and Caspase-Glo 3/7 Assay Substrate) (Promega, G8091) solution was added at 50 μl/well so that the ratio thereof to the medium would be 1:1. The process was hereinafter conducted without exposure to light. The mixture was mixed thoroughly using a shaker for 2 minutes at about 120 min^-1, and incubated for 40 minutes at room temperature. After the incubation, 80 μl was transferred to an Assay plate (Corning, 3912, Assay plate 96 well, white polystyrene), and absorbance was measured using a GloMax-Multi Detection System (Promega, E7051). A caspase inhibitor, i.e., 10μ MZ-VD-FMK (WAKO, 262-02061) was used as a positive control.
compound,measurement,setting,value
"NC(=O)c1ccc(-c2nc(-c3ccc4c(c3)OCO4)c(-c3ccccn3)[nH]2)cc1 [SB431542, reference compound]",effect of suppressing corneal endothelial cell disorder,[1]; compound at 3 μM and 10 μM,suppressed
same,effect of suppressing corneal endothelial cell disorder,[1]; compound at 10 μM,effectively suppressed
same,effect of suppressing corneal endothelial disorders,"[1]; summary statement, at sub-μM (1 μM to 0.1 μM)",not observed
same,cell survival rate compared to a control group,[2],a significant difference was not found
same,activity of Caspase 3/7,[3],reduced
